Test results: patent US20080318227A1, “Intermediates and enzymes of the non-mevalonate isoprenoid pathway” (priority 2001, published 2008)

Assays:
IspG (GcpE) = molecular target: T1, IspG (GcpE) (Escherichia coli, UniProt P62620); experiment: Screening of IspG (GcpE) enzyme activity, crude cell extract of XL1-pACYClytBgcpE, radio-HPLC; assay type: biochemical; settings: after 10 minutes of incubation at 37° C., NADH, CoCl2, pamidronate
T1 construct: 100 μl crude cell extract of XL1-pACYClytBgcpE; made in house; host or cells: E. coli XL1-Blue harbouring pACYClytBgcpE (crude cell extract)
Protocol: 0.2 g cells of XL1-pACYClytBgcpE are suspended in 1 ml 50 mM Tris hydrochloride, pH 7.4 and 2 mM DTT, cooled on ice and sonified 3×7 sec with a Branson Sonifier 250 (Branson SONIC Power Company) set to 80% duty cycle output, control value of 4 output. The suspension is centrifuged at 14000 rpm for 15 minutes. The supernatant is used as crude cell extract in assays described as follows.
The assay mixture contains 100 mM Tris hydrochloride, pH 7.4, 1.2 mM dithiothreitol, 10 mM NaF, 1 mM CoCl2, 2 mM NADH, 20 mM (18 μCi mol^−1) [2-^14C[…]2C-methyl-erythritol 2,4-cyclodiphophate, 0.5 mM pamidronate and 100 μl crude cell extract of XL1-pACYClytBgcpE in a total volume of 150 μl. The mixture is incubated for 10 to 45 min at 37° C. and cooled on ice. 10 μl of 30% (g/v) trichloroacetic acid are added and the mixture is neutralized with 20 μl of 1 M NaOH.
The mixture is centrifuged at 14.000 rpm for 10 minutes. Aliquotes of 130 μl of the supernatant are analyzed by reversed-phase ion-pair HPLC using a column of Multospher 120 RP 18-AQ-5 (4.6×250 mm, CS-Chromatographie Service GmbH, Langerwehe, Germany). […] The effluent is monitored by a continuous-flow radio detector (Beta-RAM, Biostep GmbH, Jahnsdorf, Germany). […]

γδ T-cells = experiment: γδ T cell stimulation assay (PBMCs, FACS Vδ2 TCR/CD3 double staining); assay type: cell-based, human; settings: for γδ T cell stimulation compared to IPP: at a concentration 200-fold lower than the concentration of the IPP sample; for % γδ T-cells: seven days
Protocol: PBMCs from healthy donors (donor A and donor B) are isolated from heparinized peripheral blood by density centrifugation over Ficoll-Hypaque (Amersham Pharmacia Biotech, Freiburg, Germany). […] Amounts of recombinant human IL-2 (kindly provided by Eurocetus, Amsterdam, The Netherlands) and substrates are varied from 1 to 10 U and 10 to 0.1 μM, respectively. 20 μM IPP (Echelon, Research Laboratories Inc., Salt Lake City, USA) serves as a positive control whereas medium alone serves as negative control. Incubation is done for seven days at 37° C. in the presence of 7% CO2. The harvested cells are double-stained with fluorescein isothiocyanate (FITC)-conjugated mouse anti-human monoclonal antibody Vδ2 TCR and phycoerythrin (PE)-conjugated monoclonal CD3 antibody. The cells are analyzed using a FACScan supported with Cellquest (Becton Dickinson, Heidelberg, Germany).
The substrates (E)-1-hydroxy-3-methyl-but-2-enyl 4-diphosphate (HMBPP) and 3-formyl-but-2-enyl 1-diphosphate (Aldehyde) were prepared synthetically as described above.

[1] = test system: Capsicum annuum chromoplasts; experiment: Incorporation into the lipid soluble fraction of chromoplasts; assay type: biochemical; settings: [2-14C] label, 8.8 nmol, 30° C. overnight
Protocol: Chromoplasts are isolated by a slight modification of a method described by Camara (Camara, 1985; Camara, 1993). Pericarp of red pepper (650 g) is homogenized at 4° C. in 600 ml of 50 mM Hepes, pH 8.0, containing 1 mM DTE, 1 mM EDTA and 0.4 M sucrose (buffer A). The suspension is filtered through four layers of nylon cloth (50 μm) and centrifuged (10 min, 4,500 rpm, GSA rotor) to obtain a pellet of crude chromoplasts which is homogenized in 200 ml of buffer A. The suspension is centrifuged (10 min, 4,500 rpm, GSA rotor). The pellet is homogenized and resuspended in 3 ml of 50 mM Hepes, pH 7.6, containing 1 mM DTE. The suspension is filtered through one layer of nylon cloth (50 μm).
Reaction mixtures contain 100 mM Hepes, pH 7.6, 2 mM MnCl2, 10 mM MgCl2, 5 mM NaF, 2 mM NADP^+, 1 mM NADPH, 6 mM ATP, 20 μM FAD and 2 mg of chromoplasts. 8.8 nmol of [2-^14C]2C-methyl-D-erythritol 2,4-cyclodiphosphate, [2-^14C]1-hydroxy-2-methyl-2-(E)-butenyl diphosphate or [2-^14C]isopentenyl diphosphate (specific […] 15.8 μCi/μmol) are added and the mixtures are incubated at 30° C. overnight. The reaction is terminated by methylene chloride extraction. The organic phase is concentrated under a stream of nitrogen. […] The chromatograms are monitored with a phosphor imager (Storm 860, Molecular dynamics, Sunnyvale, Calif., USA). […]

IspH (LytB) = molecular target: T2, IspH (LytB) (Escherichia coli, UniProt P62623); experiment: Screening of IspH (LytB) activity, crude cell extract, radio-HPLC; assay type: biochemical
T2 construct: 20 μl of crude cell extract of M15-pMALlytB cells; made in house; host or cells: E. coli M15 harbouring pMALlytB (crude cell extract)

[2] = substrate 0.1 μM, IL-2 1 U, Donor A
[3] = substrate 0.1 μM, IL-2 1 U, Donor B
[4] = substrate 0.1 μM, IL-2 5 U, Donor A
[5] = substrate 0.1 μM, IL-2 5 U, Donor B
[6] = substrate 0.1 μM, IL-2 10 U, Donor A
[7] = substrate 0.1 μM, IL-2 10 U, Donor B
[8] = substrate 1 μM, IL-2 1 U, Donor A
[9] = substrate 1 μM, IL-2 1 U, Donor B
[10] = substrate 1 μM, IL-2 5 U, Donor A
[11] = substrate 1 μM, IL-2 5 U, Donor B
[12] = substrate 1 μM, IL-2 10 U, Donor A
[13] = substrate 1 μM, IL-2 10 U, Donor B
[14] = substrate 10 μM, IL-2 1 U, Donor A
[15] = substrate 10 μM, IL-2 1 U, Donor B
[16] = substrate 10 μM, IL-2 5 U, Donor A
[17] = substrate 10 μM, IL-2 5 U, Donor B
[18] = substrate 10 μM, IL-2 10 U, Donor A
[19] = substrate 10 μM, IL-2 10 U, Donor B

T2 sequence (P62623 whole entry): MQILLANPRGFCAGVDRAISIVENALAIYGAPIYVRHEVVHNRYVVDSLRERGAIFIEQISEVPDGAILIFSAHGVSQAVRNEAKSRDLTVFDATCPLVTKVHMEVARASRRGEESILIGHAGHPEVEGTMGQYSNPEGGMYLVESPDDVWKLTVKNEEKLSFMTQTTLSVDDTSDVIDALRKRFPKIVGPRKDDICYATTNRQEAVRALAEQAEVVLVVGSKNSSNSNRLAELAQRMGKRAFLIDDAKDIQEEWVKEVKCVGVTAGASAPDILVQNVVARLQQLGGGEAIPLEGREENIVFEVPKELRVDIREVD
T1 sequence (P62620 whole entry): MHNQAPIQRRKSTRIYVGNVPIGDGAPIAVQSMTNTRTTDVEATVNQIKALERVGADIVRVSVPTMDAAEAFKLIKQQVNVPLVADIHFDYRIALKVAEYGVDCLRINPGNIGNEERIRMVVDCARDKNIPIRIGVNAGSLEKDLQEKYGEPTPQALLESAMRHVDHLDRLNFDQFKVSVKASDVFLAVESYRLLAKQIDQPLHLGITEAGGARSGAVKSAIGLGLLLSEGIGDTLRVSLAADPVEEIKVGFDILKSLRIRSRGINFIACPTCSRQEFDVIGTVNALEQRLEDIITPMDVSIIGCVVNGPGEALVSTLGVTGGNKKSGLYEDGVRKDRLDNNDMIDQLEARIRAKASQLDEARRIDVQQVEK

C[C@@]1(CO)OP(=O)(O)OP(=O)(O)OC[C@H]1O [2C-methyl-erythritol 2,4-cyclodiphophate, 2C-methyl-D-erythritol 2,4-cyclodiphosphate]
substrate converted into 1-hydroxy-2-methyl-2-(E)-butenyl-4-diphosphate and DMAPP/IPP (IspG (GcpE)): about 13%

C/C(=C\COP(=O)(O)OP(=O)(O)O)CO [HMBPP, (E)-1-hydroxy-3-methyl-but-2-enyl 4-diphosphate]
γδ T cell stimulation compared to IPP (γδ T-cells): at least double stimulation compared to IPP
% γδ T-cells (γδ T-cells; [2]): 11.78%
% γδ T-cells (γδ T-cells; [3]): 32.21%
% γδ T-cells (γδ T-cells; [4]): 22.92%
% γδ T-cells (γδ T-cells; [5]): 44.69%
% γδ T-cells (γδ T-cells; [6]): 34.69%
% γδ T-cells (γδ T-cells; [7]): 36.33%
% γδ T-cells (γδ T-cells; [8]): 5.57%
% γδ T-cells (γδ T-cells; [9]): 35.34%
% γδ T-cells (γδ T-cells; [10]): 14.4%
% γδ T-cells (γδ T-cells; [11]): 54.12%
% γδ T-cells (γδ T-cells; [12]): 19.85%
% γδ T-cells (γδ T-cells; [13]): 55.90%
% γδ T-cells (γδ T-cells; [14]): 3.3%
% γδ T-cells (γδ T-cells; [15]): 31.42%
% γδ T-cells (γδ T-cells; [16]): 17.38%
% γδ T-cells (γδ T-cells; [17]): 63.48%
% γδ T-cells (γδ T-cells; [18]): 24.94%
% γδ T-cells (γδ T-cells; [19]): 63.34%
radioactivity diverted into geranylgeraniol, carotene, phytoene and phytofluene fractions [1]: efficiently diverted
HPLC peak of substrate; conversion into DMAPP and IPP (IspH (LytB); crude cell extract of E. coli M15-pMALlytB cells, 30 min at 37° C., NADH, FAD, pamidronate): completely diminished
conversion into DMAPP and IPP (IspH (LytB); crude cell extract of E. coli wild-type as protein source): No conversion

C=C(C)CCO[P@@](=O)(O)OP(=O)(O)O [IPP, isopentenyl diphosphate, reference compound]
% γδ T-cells (γδ T-cells; [2]): 1.3%
% γδ T-cells (γδ T-cells; [3]): 2.15%
% γδ T-cells (γδ T-cells; [4]): 1.3%
% γδ T-cells (γδ T-cells; [5]): 2.26%
% γδ T-cells (γδ T-cells; [6]): 1.01%
% γδ T-cells (γδ T-cells; [7]): 2.54%
% γδ T-cells (γδ T-cells; [8]): 1.56%
% γδ T-cells (γδ T-cells; [9]): 2.22%
% γδ T-cells (γδ T-cells; [10]): 1.59%
% γδ T-cells (γδ T-cells; [11]): 2.67%
% γδ T-cells (γδ T-cells; [12]): 1.71%
% γδ T-cells (γδ T-cells; [13]): 2.19%
% γδ T-cells (γδ T-cells; substrate 20 μM, IL-2 1 U, Donor A): 8.19%
% γδ T-cells (γδ T-cells; substrate 20 μM, IL-2 1 U, Donor B): 6.24%
% γδ T-cells (γδ T-cells; substrate 20 μM, IL-2 5 U, Donor A): 14.42%
% γδ T-cells (γδ T-cells; substrate 20 μM, IL-2 5 U, Donor B): 9.32%
% γδ T-cells (γδ T-cells; substrate 20 μM, IL-2 10 U, Donor A): 16.6%
% γδ T-cells (γδ T-cells; substrate 20 μM, IL-2 10 U, Donor B): 11.86%

(E)-3-formyl-but-2-enyl 1-diphosphate [Aldehyde]
γδ T cell stimulation compared to IPP (γδ T-cells): at least double stimulation compared to IPP
% γδ T-cells (γδ T-cells; [2]): 10%
% γδ T-cells (γδ T-cells; [3]): 13.54%
% γδ T-cells (γδ T-cells; [4]): 19.77%
% γδ T-cells (γδ T-cells; [5]): 18.45%
% γδ T-cells (γδ T-cells; [6]): 21.93%
% γδ T-cells (γδ T-cells; [7]): 25.82%
% γδ T-cells (γδ T-cells; [8]): 15.91%
% γδ T-cells (γδ T-cells; [9]): 21.18%
% γδ T-cells (γδ T-cells; [10]): 40.13%
% γδ T-cells (γδ T-cells; [11]): 30.76%
% γδ T-cells (γδ T-cells; [12]): 48.28%
% γδ T-cells (γδ T-cells; [13]): 36.69%
% γδ T-cells (γδ T-cells; [14]): 12.19%
% γδ T-cells (γδ T-cells; [15]): 30.69%
% γδ T-cells (γδ T-cells; [16]): 34.69%
% γδ T-cells (γδ T-cells; [17]): 30.33%
% γδ T-cells (γδ T-cells; [18]): 38.99%
% γδ T-cells (γδ T-cells; [19]): 38.85%
